From ChEMBL document CHEMBL5233281, “Design, synthesis and biological evaluation of novel 1,3,4,9-tetrahydropyrano[3,4-b]indoles as potential treatment of triple negative breast cancer by suppressing PI3K/AKT/mTOR pathway” (Bioorg Med Chem, 2021)

Tests used:
A549 = test: Antiproliferative activity against human A549 cells assessed as inhibition of cell growth incubated for 72 hrs by CCK8 assay; type: functional, cell-based; conditions: A549, 72 h
BGC-823 = test: Antiproliferative activity against human BGC-823 cells assessed as inhibition of cell growth incubated for 72 hrs by CCK8 assay; type: functional, cell-based; conditions: BGC-823, 72 h
PC-3 = test: Antiproliferative activity against human PC-3 cells assessed as inhibition of cell growth incubated for 72 hrs by CCK8 assay; type: functional, cell-based; conditions: PC-3, 72 h
MCF7 = test: Antiproliferative activity against human MCF7 cells assessed as inhibition of cell growth incubated for 72 hrs by CCK8 assay; type: functional, cell-based; conditions: MCF7, 72 h
MDA-MB-231 [1] = test: Antiproliferative activity against human MDA-MB-231 cells assessed as inhibition of cell growth incubated for 72 hrs by CCK8 assay; type: functional, cell-based; conditions: MDA-MB-231, 72 h
[2] = Antiproliferative activity against human MCF-10A cells assessed as inhibition of cell growth incubated for 72 hrs by CCK8 assay; type: toxicity, cell-based
[3] = Selectivity index, ratio of IC50 for antiproliferative activity against human MCF-10A cells to IC50 for antiproliferative activity against human MDA-MB-231 cells; type: toxicity, cell-based; conditions: MCF-10A cells and MDA-MB-231 cells, read-out: Ratio IC50
MDA-MB-231 [4] = test: Antiproliferative activity against human MDA-MB-231 cells assessed as inhibition of cell growth incubated for 72 hrs by SRB assay; type: functional, cell-based; conditions: MDA-MB-231, 72 h

Row | SMILES | IC50 (A549) | IC50 (BGC-823) | IC50 (PC-3) | IC50 (MCF7) | IC50 (MDA-MB-231 [1]) | IC50 (MDA-MB-231 [4]) | IC50 at 72 h [2] | selectivity ratio [3]
1 | COc1ccc(C2OCCc3c2[nH]c2ccc(OC)cc32)cc1 (stereo unspecified) | > 20 µM | > 20 µM | > 20 µM | > 20 µM | 16.9 µM |  | 51.9 µM | 3.07
2 | Cc1ccc(C2OCCc3c2[nH]c2ccccc32)cc1 (stereo unspecified) | > 20 µM | > 20 µM | 18.2 µM | > 20 µM | > 20 µM |  |  | 
3 | COc1ccc2cc(C3OCCc4c3[nH]c3ccccc43)ccc2c1 (stereo unspecified) | 15.4 µM | 13.2 µM | 12.6 µM | 12.2 µM | 4.59 µM |  | 21.9 µM | 4.77
4 | COc1ccccc1C1OCCc2c1[nH]c1ccccc21 (stereo unspecified) | > 20 µM | > 20 µM | > 20 µM | > 20 µM | > 20 µM |  |  | 
5 | c1ccc(-c2ccc(C3OCCc4c3[nH]c3ccccc43)cc2)cc1 (stereo unspecified) | > 20 µM | > 20 µM | > 20 µM | > 20 µM | > 20 µM |  |  | 
6 | C[C@@H](Nc1cc(F)cc(F)c1)c1cc(C(=O)N(C)C)cc2c(=O)cc(N3CCOCC3)oc12 [AZD-8186] |  |  |  |  |  | 6.99 µM |  | 
7 | COc1ccc(C2OCCc3c2[nH]c2ccccc32)cc1 (stereo unspecified) | 18.9 µM | 15.6 µM | 17.8 µM | 16.6 µM | 10.8 µM |  | 35.9 µM | 3.32
8 | COc1cc(C2OCCc3c2[nH]c2ccccc32)cc(OC)c1OC (stereo unspecified) | 19 µM | 18.3 µM | 13.9 µM | 18.5 µM | 13.5 µM |  | 46.2 µM | 
9 | COc1ccc2cc(C3OCCc4c3n(C)c3ccccc43)ccc2c1 (stereo unspecified) | 17.5 µM | 18.1 µM | 16.7 µM | 12.7 µM | 11.6 µM |  | 30 µM | 3.35

Now from value to molecule, other results behind:

Row | IC50 (A549) | IC50 (BGC-823) | IC50 (PC-3) | IC50 (MCF7) | IC50 (MDA-MB-231 [1]) | IC50 (MDA-MB-231 [4]) | SMILES | IC50 at 72 h [2] | selectivity ratio [3]
10 | 19.4 µM | 14.7 µM | 6.21 µM | 7.05 µM | 6.8 µM |  | Fc1ccc(C2OCCc3c2[nH]c2ccccc32)cc1 (stereo unspecified) | 32 µM | 6.8
11 | > 20 µM | > 20 µM | > 20 µM | > 20 µM | > 20 µM |  | Cc1cccc(C2OCCc3c2[nH]c2ccccc32)c1 (stereo unspecified) |  | 
12 | > 20 µM | > 20 µM | > 20 µM | > 20 µM | > 20 µM |  | c1ccc(C2OCCc3c2[nH]c2ccccc32)cc1 (stereo unspecified) |  | 
13 | > 20 µM | > 20 µM | > 20 µM | > 20 µM | 16.5 µM |  | COc1ccc(C2OCCc3c2[nH]c2ccc(Br)cc32)cc1 (stereo unspecified) | 45.1 µM | 2.42
14 | 17.6 µM | 12.3 µM | 12.8 µM | 15.8 µM | 13.1 µM |  | Clc1ccc(C2OCCc3c2[nH]c2ccccc32)cc1 (stereo unspecified) | 35.4 µM | 
15 | 19.9 µM | 19.7 µM | 14.8 µM | 16.5 µM | 15.8 µM |  | COc1ccc2cc(C3OCCc4c3n(Cc3ccccc3)c3ccccc43)ccc2c1 (stereo unspecified) | 41.4 µM | 2.63
16 | > 20 µM | > 20 µM | > 20 µM | 18 µM | 15.3 µM |  | COc1cccc(C2OCCc3c2[nH]c2ccccc32)c1 (stereo unspecified) | 40.8 µM | 2.67
17 | > 20 µM | > 20 µM | 18.1 µM | > 20 µM | 17.8 µM |  | COc1ccc(C2OCCc3c2[nH]c2ccccc32)cc1OC (stereo unspecified) | 40.4 µM | 2.27
18 | > 20 µM | > 20 µM | 19.7 µM | > 20 µM | > 20 µM |  | COc1ccc(C2OCCc3c2[nH]c2ccccc32)c(OC)c1OC (stereo unspecified) |  | 
19 | > 20 µM | 17.8 µM | > 20 µM | > 20 µM | > 20 µM |  | c1ccc2cc(C3OCCc4c3[nH]c3ccccc43)ccc2c1 (stereo unspecified) |  | 
20 | > 20 µM | > 20 µM | > 20 µM | 19.4 µM | > 20 µM |  | CC(=O)Oc1ccc(C2OCCc3c2[nH]c2ccccc32)cc1 (stereo unspecified) |  | 
